Measured values: patent publication US20140058103A1, “Inhibitors of PI3K-Delta and Methods of Their Use and Manufacture” (Exelixis, Inc., priority 2010, published 2014)
Blank lines part the entries; values can stand above or below the compound they belong to.

Molecular target: PI3K delta (Homo sapiens, UniProt O00329)
Experiment: Luciferase-coupled chemiluminescence kinase assay (ATP consumption, KinaseGlo)
Type: biochemical
Summary of the method: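 ATP consumption measured by KinaseGlo luciferase chemiluminescence after a 2 h reaction at ambient temperature, with ATP at or below the kinase KM. Ten inhibitor concentrations per curve; IC50 from four-parameter nonlinear regression.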

Chain of PI3K delta (O00329 whole entry): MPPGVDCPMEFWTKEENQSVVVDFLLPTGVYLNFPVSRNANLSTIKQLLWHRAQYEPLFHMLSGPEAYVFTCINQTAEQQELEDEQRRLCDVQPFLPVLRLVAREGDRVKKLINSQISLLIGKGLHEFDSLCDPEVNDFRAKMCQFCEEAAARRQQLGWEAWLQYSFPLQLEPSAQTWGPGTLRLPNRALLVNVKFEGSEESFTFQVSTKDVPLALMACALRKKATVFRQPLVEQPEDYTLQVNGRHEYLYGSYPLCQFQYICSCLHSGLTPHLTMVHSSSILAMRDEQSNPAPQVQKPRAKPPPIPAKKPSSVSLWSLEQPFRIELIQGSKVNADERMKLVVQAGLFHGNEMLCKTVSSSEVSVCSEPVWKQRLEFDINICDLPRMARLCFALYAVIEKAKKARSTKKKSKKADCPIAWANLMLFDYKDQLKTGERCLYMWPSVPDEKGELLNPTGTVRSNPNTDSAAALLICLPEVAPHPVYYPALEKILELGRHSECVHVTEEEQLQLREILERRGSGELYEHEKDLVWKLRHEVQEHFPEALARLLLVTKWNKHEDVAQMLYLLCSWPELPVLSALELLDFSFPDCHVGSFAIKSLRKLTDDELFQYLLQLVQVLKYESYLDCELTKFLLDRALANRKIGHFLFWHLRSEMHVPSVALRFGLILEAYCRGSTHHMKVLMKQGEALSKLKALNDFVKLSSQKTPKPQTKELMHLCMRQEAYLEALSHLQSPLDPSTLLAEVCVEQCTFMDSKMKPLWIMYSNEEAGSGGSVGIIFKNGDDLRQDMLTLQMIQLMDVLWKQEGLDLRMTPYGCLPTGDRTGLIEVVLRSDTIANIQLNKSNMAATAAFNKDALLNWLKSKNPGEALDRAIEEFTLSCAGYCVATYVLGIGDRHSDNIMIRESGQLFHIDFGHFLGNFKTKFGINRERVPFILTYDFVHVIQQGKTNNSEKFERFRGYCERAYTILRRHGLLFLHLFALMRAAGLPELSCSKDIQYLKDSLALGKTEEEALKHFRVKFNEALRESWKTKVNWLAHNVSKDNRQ
Chain of PI3K delta (P27986 whole entry partner): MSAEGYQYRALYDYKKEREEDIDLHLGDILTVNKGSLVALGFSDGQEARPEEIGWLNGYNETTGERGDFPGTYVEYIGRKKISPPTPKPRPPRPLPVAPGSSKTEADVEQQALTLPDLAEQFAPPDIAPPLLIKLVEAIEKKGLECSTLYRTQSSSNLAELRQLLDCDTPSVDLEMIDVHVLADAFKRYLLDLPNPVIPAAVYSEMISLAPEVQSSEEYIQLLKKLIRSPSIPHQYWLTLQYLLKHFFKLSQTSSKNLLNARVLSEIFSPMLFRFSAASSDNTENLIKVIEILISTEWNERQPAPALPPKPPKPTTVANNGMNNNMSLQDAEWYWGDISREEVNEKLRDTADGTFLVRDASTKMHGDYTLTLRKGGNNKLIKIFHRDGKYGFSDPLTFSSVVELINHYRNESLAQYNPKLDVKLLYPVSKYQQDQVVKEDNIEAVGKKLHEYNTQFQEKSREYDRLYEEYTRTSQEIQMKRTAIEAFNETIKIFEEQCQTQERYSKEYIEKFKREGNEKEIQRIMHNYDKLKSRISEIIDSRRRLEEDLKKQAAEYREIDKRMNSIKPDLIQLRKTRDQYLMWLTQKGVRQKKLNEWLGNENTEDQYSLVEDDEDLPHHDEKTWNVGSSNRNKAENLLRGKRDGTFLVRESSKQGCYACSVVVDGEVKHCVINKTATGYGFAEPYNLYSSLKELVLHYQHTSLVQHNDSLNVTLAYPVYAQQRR

IC50: < 50 nM
SMILES: CCn1c(C(=O)NC2CCC2)nc2c(N3CCC(n4c(=O)[nH]c5ccccc54)CC3)ncnc21 [Compound 194, N-cyclobutyl-9-ethyl-6-[4-(2-oxo-2,3-dihydro-1H-benzimidazol-1-yl)piperidin-1-yl]-9H-purine-8-carboxamide]

IC50: < 50 nM
SMILES: CCn1c(-c2ccc(C(F)(F)F)nc2)nc2c(N3CCC(n4c(=O)[nH]c5ccccc54)CC3)ncnc21 [Compound 314, 1-(1-{9-ethyl-8-[6-(trifluoromethyl)pyridin-3-yl]-9H-purin-6-yl}piperidin-4-yl)-1,3-dihydro-2H-benzimidazol-2-one]

IC50: < 50 nM
SMILES: Cn1c(-c2cn[nH]c2-c2ccccc2)nc2c(N3CCC(n4c(=O)[nH]c5ccccc54)CC3)ncnc21 [Compound 286, 1-{1-[9-methyl-8-(5-phenyl-1H-pyrazol-4-yl)-9H-purin-6-yl]piperidin-4-yl}-1,3-dihydro-2H-benzimidazol-2-one]

IC50: < 50 nM
SMILES: Cn1c(-c2cn[nH]c2C2CC2)nc2c(N3CCC(n4c(=O)[nH]c5ccccc54)CC3)ncnc21 [Compound 287, 1-{1-[8-(5-cyclopropyl-1H-pyrazol-4-yl)-9-methyl-9H-purin-6-yl]piperidin-4-yl}-1,3-dihydro-2H-benzimidazol-2-one]

IC50: 500 to 1500 nM
SMILES: Cn1cc(-c2nc3c(N4CCN(S(=O)(=O)c5ccc(F)cc5)CC4)ncnc3n2C)cn1 [Compound 372, 6-{4-[(4-fluorophenyl)sulfonyl]piperazin-1-yl}-9-methyl-8-(1-methyl-1H-pyrazol-4-yl)-9H-purine]

IC50: < 50 nM
SMILES: CCc1nnc(-c2nc3c(N4CCC5(CC4)C(=O)Nc4ccccc45)ncnc3n2CC)o1 [Compound 236, 1′-[9-ethyl-8-(5-ethyl-1,3,4-oxadiazol-2-yl)-9H-purin-6-yl]spiro[indole-3,4′-piperidin]-2(1H)-one]

IC50: 500 to 1500 nM
SMILES: Cn1cc(-c2nc3c(N4CCN(c5ccc(OCc6ccc7ccccc7n6)cc5)CC4)ncnc3n2C)cn1 [Compound 361, 2-{[(4-(4-[9-methyl-8-(1-methyl-1H-pyrazol-4-yl)-9H-purin-6-yl]piperazin-1-yl}phenyl)oxy]methyl)-quinoline]

IC50: < 50 nM
SMILES: CC(C)Cc1nnc(-c2nc3c(N4CCC(n5c(=O)[nH]c6ccccc65)CC4)ncnc3n2C)o1 [Compound 204, 1-(1-{9-methyl-8-[5-(2-methylpropyl)-1,3,4-oxadiazol-2-yl]-9H-purin-6-yl}piperidin-4-yl)-1,3-dihydro-2H-benzimidazol-2-one]

IC50: < 50 nM
SMILES: CCCc1nnc(-c2nc3c(N4CCC5(CC4)C(=O)Nc4ccccc45)ncnc3n2CC)o1 [Compound 227, 1′-[9-ethyl-8-(5-propyl-1,3,4-oxadiazol-2-yl)-9H-purin-6-yl]spiro[indole-3,4′-piperidin]-2(1H)-one]

IC50: < 50 nM
SMILES: Cn1cc(-c2nc3c(N4CCC5(CC4)C(=O)Nc4ccccc45)ncnc3n2C)cn1 [Compound 239, 1′-[9-methyl-8-(1-methyl-1H-pyrazol-4-yl)-9H-purin-6-yl]spiro[indole-3,4′-piperidin]-2(1H)-one]

IC50: < 50 nM
SMILES: Cn1c(-c2ccc(C(F)(F)F)nc2)nc2c(N3CCC(n4c(=O)[nH]c5ccccc54)CC3)ncnc21 [Compound 279, 1-(1-{9-methyl-8-[6-(trifluoromethyl)pyridin-3-yl]-9H-purin-6-yl}piperidin-4-yl)-1,3-dihydro-2H-benzimidazol-2-one]

IC50: < 50 nM
SMILES: CCn1c(C(=O)NCC(C)(C)O)nc2c(N3CCC(n4c(=O)[nH]c5ccccc54)CC3)ncnc21 [Compound 197, 9-ethyl-N-(2-hydroxy-2-methylpropyl)-6-[4-(2-oxo-2,3-dihydro-1H-benzimidazol-1-yl)piperidin-1-yl]-9H-purine-8-carboxamide]

IC50: < 50 nM
SMILES: Cn1c(-c2nnc(C3CC3)o2)nc2c(N3CCC4(CC3)C(=O)Nc3ccccc34)ncnc21 [Compound 184, 1′-[8-(5-cyclopropyl-1,3,4-oxadiazol-2-yl)-9-methyl-9H-purin-6-yl]spiro[indole-3,4′-piperidin]-2(1H)-one]

IC50: 250 to 500 nM
SMILES: Cn1cc(-c2nc3c(N4CCC(c5c[nH]c6ccccc56)CC4)ncnc3n2C)cn1 [Compound 351, 6-[4-(1H-indol-3-yl)piperidin-1-yl]-9-methyl-8-(1-methyl-1H-pyrazol-4-yl)-9H-purine]

IC50: < 50 nM
SMILES: CCn1c(-c2cnc(N(C)C)nc2)nc2c(N3CCC(n4c(=O)[nH]c5ccccc54)CC3)ncnc21 [Compound 320, 1-[1-{8-[2-(dimethylamino)pyrimidin-5-yl]-9-ethyl-9H-purin-6-yl)piperidin-4-yl)-1,3-dihydro-2H-benzimidazol-2-one]

IC50: < 50 nM
SMILES: Cc1c(-c2nc3c(N4CCC(n5c(=O)[nH]c6ncccc65)CC4)ncnc3n2C)cnn1C [Compound 331, 1-{1-[8-(1,5-dimethyl-1H-pyrazol-4-yl)-9-methyl-9H-purin-6-yl]piperidin-4-yl}-1,3-dihydro-2H-imidazo[4,5-b]pyridin-2-one]

IC50: < 50 nM
SMILES: CNc1ccc(-c2nc3c(N4CCC(n5c(=O)[nH]c6ncccc65)CC4)ncnc3n2C)cn1 [Compound 354, 1-(1-{9-methyl-8-[6-(methylamino)pyridin-3-yl]-9H-purin-6-yl}piperidin-4-yl)-1,3-dihydro-2H-imidazo[4,5-b]pyridin-2-one]

IC50: 50 to 250 nM
SMILES: Cn1c(C(=O)N2CC[C@H](F)C2)nc2c(N3CCC(n4c(=O)[nH]c5ccccc54)CC3)ncnc21 [Compound 396, 1-[1-(8-{[(3S)-3-fluoropyrrolidin-1-yl]carbonyl)-9-methyl-9H-purin-6-yl)piperidin-4-yl]-1,3-dihydro-2H-benzimidazol-2-one]

IC50: < 50 nM
SMILES: Cc1c(-c2nc3c(N4CCC5(CC4)C(=O)Nc4ccccc45)ncnc3n2C)cnn1C [Compound 246, 1′-[8-(1,5-dimethyl-1H-pyrazol-4-yl)-9-methyl-9H-purin-6-yl]spiro[indole-3,4′-piperidin]-2(1H)-one]

More lines, now with the values behind:

SMILES: Cn1c(C(=O)NCC2CC2)nc2c(N3CCC4(CC3)OC(=O)c3ccccc34)ncnc21 [Compound 138, N-(cyclopropylmethyl)-9-methyl-6-(3-oxo-1′H,3H-spiro[2-benzofuran-1,4′-piperidin]-1′-yl)-9H-purine-8-carboxamide]
IC50: 500 to 1500 nM

SMILES: CC(NC(=O)c1nc2c(N3CCC(n4c(=O)[nH]c5ccccc54)CC3)ncnc2n1C)c1ccccc1 (stereo not drawn) [Compound 53, 9-methyl-6-[4-(2-oxo-2,3-dihydro-1H-benzimidazol-1-yl)piperidin-1-yl]-N-(1-phenylethyl)-9H-purine-8-carboxamide]
IC50: 500 to 1500 nM

SMILES: Cn1c(C(=O)NCCO)nc2c(N3CCC(n4c(=O)[nH]c5ccccc54)CC3)ncnc21 [Compound 55, N-(2-hydroxyethyl)-9-methyl-6-[4-(2-oxo-2,3-dihydro-1H-benzimidazol-1-yl)piperidin-1-yl]-9H-purine-8-carboxamide]
IC50: 50 to 250 nM

SMILES: Cc1nc(-c2ccccc2)n(OCC2CCN(c3ncnc4c3nc(-c3cnn(C)c3)n4C)CC2)c1C [Compound 2, 6-(4-(((4,5-Dimethyl-2-phenyl-1H-imidazol-1-yl)oxy)methyl)piperidin-1-yl)-9-methyl-8-(1-methyl-M-pyrazol-4-yl)-9H-purine]
IC50: 500 to 1500 nM

SMILES: CCn1cc(-c2nc3c(N4CCC(n5c(=O)[nH]c6ccccc65)CC4)ncnc3n2C)cn1 [Compound 146, 1-{1-[8-(1-Ethyl-1H-pyrazol-4-yl)-9-methyl-9H-purin-6-yl]piperidin-4-yl}-1,3-dihydro-2H-benzimidazol-2-one]
IC50: < 50 nM

SMILES: Cn1c(C(=O)NCC2CCC2)nc2c(N3CCC4(CC3)C(=O)Nc3ccccc34)ncnc21 [Compound 89, N-(cyclobutylmethyl)-9-methyl-6-(2-oxo-1,2-dihydro-1′H-spiro[indole-3,4′-piperidin]-1′-yl)-9H-purine-8-carboxamide]
IC50: 50 to 250 nM

SMILES: Cn1c(C(=O)NCC2CC2)nc2c(N3CCC4(CC3)C(=O)Nc3c(Br)cccc34)ncnc21 [Compound 168, 6-(7-bromo-2-oxo-1,2-dihydro-1′H-spiro[indole-3,4′-piperidin]-1′-yl)-N-(cyclopropylmethyl)-9-methyl-9H-purine-8-carboxamide]
IC50: < 50 nM

SMILES: Cn1c(C(=O)NC2CCC2)nc2c(N3CCC(n4c(=O)[nH]c5ccccc54)CC3)ncnc21 [Compound 44, N-cyclobutyl-9-methyl-6-[4-(2-oxo-2,3-dihydro-1H-benzimidazol-1-yl)piperidin-1-yl]-9H-purine-8-carboxamide]
IC50: 50 to 250 nM

SMILES: CC(C)CNC(=O)c1nc2c(N3CCC(n4c(=O)[nH]c5ccccc54)CC3)ncnc2n1C1CC1 [Compound 173, 9-cyclopropyl-N-(2-methylpropyl)-6-[4-(2-oxo-2,3-dihydro-1H-benzimidazol-1-yl)piperidin-1-yl]-9H-purine-8-carboxamide]
IC50: 250 to 500 nM

SMILES: Cn1c(C(=O)NCC(F)(F)F)nc2c(N3CCC4(CC3)C(=O)Nc3ccccc34)ncnc21 [Compound 30, 9-methyl-6-(2-oxo-1,2-dihydro-1′H-spiro[indole-3,4′-piperidin]-1′-yl)-N-(2,2,2-trifluoroethyl)-9H-purine-8-carboxamide]
IC50: < 50 nM

SMILES: CC(C)N(C)C(=O)c1nc2c(N3CCC4(CC3)C(=O)Nc3ccccc34)ncnc2n1C [Compound 38, N,9-dimethyl-N-(1-methylethyl)-6-(2-oxo-1,2-dihydro-1′H-spiro[indole-3,4′-piperidin]-1′-yl)-9H-purine-8-carboxamide]
IC50: 500 to 1500 nM

SMILES: Cn1c(C(=O)NCc2ccc3c(c2)OCO3)nc2c(N3CCC(n4c(=O)[nH]c5ccccc54)CC3)ncnc21 [Compound 50, N-(1,3-benzodioxol-5-ylmethyl)-9-methyl-6-[4-(2-oxo-2,3-dihydro-1H-benzimidazol-1-yl)piperidin-1-yl]-9H-purine-8-carboxamide]
IC50: 250 to 500 nM

SMILES: CCCCCCNC(=O)c1nc2c(N3CCC4(CC3)C(=O)Nc3ccccc34)ncnc2n1C [Compound 37, N-hexyl-9-methyl-6-(2-oxo-1,2-dihydro-1′H-spiro[indole-3,4′-piperidin]-1′-yl)-9H-purine-8-carboxamide]
IC50: 500 to 1500 nM

SMILES: CCn1c(C(=O)N[C@H]2CC[C@H](O)CC2)nc2c(N3CCC4(CC3)C(=O)Nc3ccccc34)ncnc21 [Compound 159, 9-ethyl-N-(trans-4-hydroxycyclohexyl)-6-(2-oxo-1,2-dihydro-1′H-spiro[indole-3,4′-piperidin]-1′-yl)-9H-purine-8-carboxamide]
IC50: < 50 nM
